From article PMC10799042 (Scientific Reports, 2024)

Legend:
[1] = system: scopolamine-induced memory impairment and learning disability in mice; assay: Morris water maze, scopolamine-induced memory impairment; type: in vivo, Swiss albino male mice; settings: for escape latency versus scopolamine-treated mice (in words) / improvement of cognitive defects (in words): 2 mg/kg; for escape latency versus scopolamine-treated mice (in words): day 1 to 5; for Escape latency, 1st Day: day 1; for Escape latency, 2nd Day: day 2; for Escape latency, 3rd Day: day 3; for Escape latency, 4th Day: day 4; for Escape latency, 5th Day: day 5; for improvement of cognitive defects (in words): compared with donepezil 2 mg/kg
Protocol: Swiss albino male mice weighing 25–30 g were purchased from LLRUVAS in Hisar, Haryana, India. […] The housing, care, and handling of the animals were done per CPCSEA requirements. The animals were exposed to the laboratory setting for seven days before the experiment.
(§1) The animals were properly acclimated before being randomly placed into 12 groups (I-XII), with six animals in each group. […] Following the delivery of the dose to the mouse, the rodent's behaviour was assessed using the traditional Morris water maze (MWM) technique.
Five days of continuous animal evaluations were conducted using the MWM model. […] The tank was placed in a dim laboratory, and using wires anchored at the pool's edge at an angle to one another, it was divided into four equal pieces (P1–P4). A stage in the targeted area (P4) of the pool with an upper face (6 × 6 cm^2) immersed in the water (1.0 cm below the surface). The location of the stage stayed the same throughout the evaluation. The animals were subjected to water pools throughout the evaluation by turning their heads towards the wall from any of the four segments, namely P1-P4, and being given 90 s to recognise the stage placed in a pool. If the animal couldn't get to the stage in 90 s, they were gently guided onto the stage under supervision. On the sixth day, one of the parameters used to determine if cognitive impairments have recovered was the time it took the mice to travel from the initial portion to locate the hidden stage in the intended part (escape latency). […]

[2] = target: T1, Acetylcholinesterase (AChE) (Mus musculus, UniProt P21836); settings: brain THS of mice, scopolamine 1.5 mg/kg i.p.; donepezil and compounds 2 mg/kg p.o.; mean ± SD
T1 sequence (P21836 32-614): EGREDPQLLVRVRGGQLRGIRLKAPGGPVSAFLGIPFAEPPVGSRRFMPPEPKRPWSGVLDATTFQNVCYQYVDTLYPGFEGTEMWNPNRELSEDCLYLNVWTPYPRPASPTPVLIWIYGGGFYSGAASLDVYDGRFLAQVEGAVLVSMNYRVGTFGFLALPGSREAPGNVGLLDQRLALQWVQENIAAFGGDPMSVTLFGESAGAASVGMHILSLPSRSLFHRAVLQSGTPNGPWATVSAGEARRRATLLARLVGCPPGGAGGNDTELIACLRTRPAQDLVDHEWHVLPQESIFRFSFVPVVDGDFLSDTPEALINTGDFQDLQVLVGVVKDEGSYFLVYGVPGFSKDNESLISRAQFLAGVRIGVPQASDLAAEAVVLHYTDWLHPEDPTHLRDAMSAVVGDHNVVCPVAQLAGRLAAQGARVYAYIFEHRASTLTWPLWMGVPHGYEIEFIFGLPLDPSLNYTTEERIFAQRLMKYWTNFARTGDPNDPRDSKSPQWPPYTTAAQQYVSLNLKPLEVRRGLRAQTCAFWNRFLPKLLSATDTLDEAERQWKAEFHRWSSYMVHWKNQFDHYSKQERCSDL
Protocol: as §1
(§2) After five days of behavioral assessment, the mice's brains were removed and homogenized (blended) in chilled phosphate buffer (pH 7.4) at a concentration of 10% w/v (weight per volume). The homogenates were then centrifuged (spun at high speed) for 20 min at 4 °C to separate the supernatant (liquid) from the pellet (solid material). The supernatant was then collected to measure biological substances.
Employing Ellman et al., methodology, AChE levels were quantified in tissue homogenate supernatant (THS) to evaluate cholinergic abnormalities.

[3] = system: malondialdehyde (MDA); assay: Lipid peroxidation (LPO) assay, MDA in brain homogenate; type: in vivo; settings: brain THS of mice, scopolamine 1.5 mg/kg i.p.; donepezil and compounds 2 mg/kg p.o.; mean ± SD
Protocol: as §1, §2
The amount of malondialdehyde (MDA), a marker of lipid peroxidation (LPO), was measured using a method described by Wills[10]. Tris–HCl buffer and THS were mixed and incubated at 37 °C for 2 h with 10% trichloroacetic acid. After incubation, the mixture was centrifuged again (at 1000 rpm for 10 min). […] After cooling, 1.0 mL of double-distilled water was added, and the absorbance was measured at 532 nm.

[4] = system: nitrite; assay: Nitrite assay (Greiss reagent) in brain homogenate; type: in vivo; settings: brain THS of mice, scopolamine 1.5 mg/kg i.p.; donepezil and compounds 2 mg/kg p.o.; mean ± SD
Protocol: as §1, §2
The amount of nitric oxide in THS was calculated using Greiss' reagent, a mixture of chemicals that reacts with nitric oxide to produce a colored product. The absorbance of the colored product was computed at 540 nm and the concentration of nitrite was determined using a standard curve of known nitrite concentrations.

[5] = system: Reduced glutathione (GSH); assay: Reduced glutathione (GSH) assay in brain homogenate; type: in vivo; settings: brain THS of mice, scopolamine 1.5 mg/kg i.p.; donepezil and compounds 2 mg/kg p.o.; mean ± SD
Protocol: as §1, §2
The method described by Jollow et al. was used to measure glutathione (GSH) levels. First, 1.0 mL of 4% sulfosalicylic acid was added to 1.0 mL of tissue homogenate to precipitate the GSH. The mixture was then incubated at 4 °C for 1 h and centrifuged at 1200 rpm for 10 min at 4 °C. The supernatant was collected and diluted to a final volume of 3.0 mL with phosphate buffer and Ellman's reagent. […]

[6] = system: Superoxide dismutase (SOD); assay: Superoxide dismutase (SOD) assay in brain homogenate; type: in vivo; settings: brain THS of mice, scopolamine 1.5 mg/kg i.p.; donepezil and compounds 2 mg/kg p.o.; mean ± SD
Protocol: as §1, §2
The samples contained EDTA, sodium carbonate, and NBT, and the assay was performed using Kono's method. Each sample tube contained 2.0 mL of this mixture, as well as THS and hydroxylamine. The absorbance of the mixture was measured at 560 nm every 30 or 60 s for 2 min to track changes in absorbance.

[7] = system: Catalase; assay: Catalase assay in brain homogenate; type: in vivo; settings: brain THS of mice, scopolamine 1.5 mg/kg i.p.; donepezil and compounds 2 mg/kg p.o.; mean ± SD
Protocol: as §1, §2
Employing the methodology of Luck et al., catalase activity was quantified. The sample contained H2O2 (1.0 mL, 0.019 M), phosphate buffer (1.95 mL, 0.05 M, pH 7.0), and THS (0.05 mL). The optical density was computed at a wavelength of 240 nm. The findings were shown as μM H2O2 decomposition/min/mg protein[13].

[8] = mice, scopolamine 1.5 mg/kg i.p., donepezil and compounds 2 mg/kg p.o. with scopolamine, mean ± SD

Compound	escape latency versus scopolamine-treated mice (in words) [1]	Escape latency, 1st Day [1, 8]	Escape latency, 2nd Day [1, 8]	Escape latency, 3rd Day [1, 8]	Escape latency, 4th Day [1, 8]	Escape latency, 5th Day [1, 8]	μM of AChE/min/mg protein [2]	LPO assay, MDA levels [3]	Nitrite assay, nitrite conc. [4]	GSH assay, μmol of GSH/mg Protein [5]	SOD assay, SOD units/mg protein [6]	Catalase assay, Catalase activity [7]	improvement of cognitive defects (in words) [1]	TSTQ (time spent in the target quadrant) ([1]; mice, scopolamine 1.5 mg/kg i.p., donepezil and compounds 2 mg/kg p.o. with scopolamine, probe trial, mean ± SD)
2-(1-benzylpiperidin-4-yl)-4-chloro-6,7-dimethoxyquinoline [Compound 15]	significantly reduced escape latency	80.5 ± 0.86 s	49.83 ± 0.75 s	29.16 ± 3.07 s	11.5 ± 1.04 s	3.83 ± 1.34 s	0.02 ± 0.02 μM of AChE/min/mg protein	8.54 ± 0.02 nM/mg of tissue	14.66 ± 0.04 μM/mg protein	0.09 ± 0.003 μmol of GSH/mg Protein	3.14 ± 0.03 SOD units/mg protein	5.35 ± 0.03 min⁻¹	–	–
2-(1-benzylpiperidin-4-yl)-6,7-dimethoxy-4-(4-(trifluoromethyl)phenyl)quinoline [Compound 19]	significantly reduced escape latency	54.83 ± 1.47 s	44.83 ± 2.71 s	21.33 ± 2.68 s	13.16 ± 2.31 s	3.66 ± 0.94 s	0.01 ± 0.02 μM of AChE/min/mg protein	9.25 ± 0.02 nM/mg of tissue	11.31 ± 0.03 μM/mg protein	0.09 ± 0.005 μmol of GSH/mg Protein	3.09 ± 0.03 SOD units/mg protein	5.17 ± 0.05 min⁻¹	–	–
2-(1-benzylpiperidin-4-yl)-6,7-dimethoxy-4-(4-methoxyphenyl)quinoline [Compound 18]	significantly reduced escape latency	–	44.83 ± 3.125 s	24.66 ± 1.24 s	13.83 ± 2.63 s	3.33 ± 1.37 s	0.01 ± 0.01 μM of AChE/min/mg protein	8.52 ± 0.02 nM/mg of tissue	10.51 ± 0.03 μM/mg protein	0.11 ± 0.001 μmol of GSH/mg Protein	4.08 ± 0.02 SOD units/mg protein	5.53 ± 0.01 min⁻¹	most potent	–
2-(2-(1-benzylpiperidin-4-yl)ethyl)-4-chloro-6,7-dimethoxyquinoline [Compound 17]	significantly reduced escape latency	81 ± 0.89 s	32.83 ± 1.83 s	22.66 ± 1.79 s	12.33 ± 2.25 s	4.16 ± 0.74 s	0.02 ± 0.01 μM of AChE/min/mg protein	8.73 ± 0.05 nM/mg of tissue	12.57 ± 0.05 μM/mg protein	0.11 ± 0.006 μmol of GSH/mg Protein	3.09 ± 0.02 SOD units/mg protein	4.76 ± 0.02 min⁻¹	–	–
2-((1-benzylpiperidin-4-yl)methyl)-4-chloro-6,7-dimethoxyquinoline [Compound 16]	significantly reduced escape latency	76 ± 3.3 s	30.8 ± 0.75 s	21 ± 0.81 s	16 ± 1.54 s	5.33 ± 1.24 s	0.01 ± 0.01 μM of AChE/min/mg protein	8.52 ± 0.05 nM/mg of tissue	11.74 ± 0.03 μM/mg protein	0.11 ± 0.002 μmol of GSH/mg Protein	3.07 ± 0.02 SOD units/mg protein	4.66 ± 0.04 min⁻¹	–	–
6-chloro-N-(1-(1-(3,4-dimethoxybenzyl)-2-oxopyrrolidin-3-yl)piperidin-4-yl)pyridine-3-sulfonamide [Compound 9]	significantly reduced escape latency	80.5 ± 0.84 s	40.83 ± 0.98 s	23.5 ± 2.92 s	15.83 ± 3.37 s	2.66 ± 0.68 s	0.01 ± 0.01 μM of AChE/min/mg protein	8.48 ± 0.02 nM/mg of tissue	10.42 ± 0.04 μM/mg protein	0.11 ± 0.002 μmol of GSH/mg Protein	4.09 ± 0.02 SOD units/mg protein	6.23 ± 0.02 min⁻¹	most potent	–
CN1[C@@H]2C[C@@H](OC(=O)[C@H](CO)c3ccccc3)C[C@H]1[C@@H]1O[C@@H]12 [Scopolamine, scopolamine, reference compound]	–	78.65 ± 0.82 s	80.64 ± 3.91 s	82.82 ± 3.79 s	84.15 ± 3.31 s	86.25 ± 3.31 s	–	–	–	–	–	–	–	18.55 ± 0.88 s
N-(1-benzylpiperidin-4-yl)-2-(2-oxoindolin-3-yl)acetamide [Compound 23]	significantly reduced escape latency	55.33 ± 1.96 s	45.16 ± 0.75 s	35.33 ± 2.56 s	11.83 ± 1.94 s	4.16 ± 1.067 s	0.01 ± 0.04 μM of AChE/min/mg protein	–	–	–	–	–	–	–
